Test results from patent US20080234385A1, “Method For Inhibiting Tnf-Alpha” (CARITAS ST. ELIZABETH'S MEDICAL CENTER, priority 2005, published 2008).
Entries after “also recorded” stand apart in the source; their conditions may differ.

Test system: LPS-stimulated TNF-α production
Test: LPS-stimulated TNF-α production by THP-1-derived monocytes (ELISA)
Assay type: cell-based, human
Settings: differentiated THP-1 cells, endotoxin 10 ng/ml, 24 hours; for effect on LPS-stimulated TNF-α production/synthesis (in words): rising concentrations
Procedure: The human promonocytic THP-1 cell line (American Type Culture Collection, Manassas, Va.) was maintained in suspension culture at 0.25×10^6 cells/ml in RPMI-1640 medium supplemented with 2 mM L-glutamine, 10% fetal bovine serum and 0.05 mM 2-mercaptoethanol in a humidified atmosphere of 5% CO2 in air at 37° C. Differentiation to monocytes (0.25×10^6 cells/ml) was induced by incubating cells with trans-retinoic acid (1 μM), 1.25 dihydroxy cholecalciferol (0.1 μM) and interferon-γ (0.01 mg/l) (Sigma, St. Louis, Mo.). After 3 days, cells were detached using trypsin-EDTA, washed in PBS, and 1×10^6 cells were used for each experimental condition.
Differentiated THP-1 cells were co-incubated with 10 ng/ml of purified Escherichia coli endotoxin (serotype O55: B5, Sigma Chemical Co.) and rising concentrations (0-400 μM) of either melatonin, N-acetyldopamine (NAD) or N-methyldopamine (NMD) or 3-hydroxy-4-methoxy-dopamine (HMP) (Sigma) in RPMI-1640 cell culture medium at 37° C. in a humidified atmosphere supplemented with 5% CO2. After 24-hour incubation, cell supematants were harvested, and TNF-α was measured by a sandwich enzyme linked immunosorbent assay (ELISA), according to the manufacturer's instructions (Quantikine®, R & D systems, Minneapolis, Minn., USA). The lower limit of detection for TNF-α was 1.6 pg/ml. The average intra-assay coefficient of variation for TNF-α was 5%.

SMILES: CC(=O)NCCc1ccc(O)c(O)c1 [NAD, N-acetyldopamine]
- effect on LPS-stimulated TNF-α production/synthesis (in words): marked decrease in LPS-stimulated TNF-α production, which was dose dependent; also recorded: suppress LPS-stimulated TNF-α synthesis by monocytic cells in a dose-dependent manner
- potency in blocking TNF-α production compared with NMD, HMP and melatonin (low-dose (1-20 μM, FIG. 1)): more potent in blocking TNF-α production

SMILES: CC(=O)NCCc1c[nH]c2ccc(O)cc12 [NAS, N-acetyl-serotonin, reference compound]
- effect on LPS-stimulated TNF-α production/synthesis (in words): marked decrease in LPS-stimulated TNF-α production, which was dose dependent

SMILES: CNCCc1ccc(O)c(O)c1 [NMD, N-methyldopamine]
- effect on LPS-stimulated TNF-α production/synthesis (in words): suppress LPS-stimulated TNF-α synthesis by monocytic cells in a dose-dependent manner

SMILES: COc1ccc2[nH]cc(CCNC(C)=O)c2c1 [melatonin, reference compound]
- effect on LPS-stimulated TNF-α production/synthesis (in words): marked decrease in LPS-stimulated TNF-α production, which was dose dependent
